Read-outs that look alike come from different tables or passages of the source.
What was measured:
Assay type in all cases: cell-based
[1] = test system: A549; assay: cells; settings: Homo sapiens, A549, 48 h; for GI50: read-out: GI50; for IC (TGI): read-out: TGI
Excerpt: (§1) The finality of these assays is to interrupt the growth of a “in vitro” tumor cell culture by means of a continued exhibition of the cells to the sample to be testing.
(§2) A colorimetric type of assay, using sulphorhodamine B (SRB) reaction has been adapted for a quantitative measurement of cell growth and viability [following the technique described by Philip Skehan, et al. (1990), New colorimetric cytotoxicity assay for anticancer drug screening, J. Natl. Cancer Inst., 82:1107-1112]
(§3) This form of the assay employs 96 well cell culture microplates of 9 mm diameter (Faircloth, 1988; Mosmann, 1983). Most of the cell lines are obtained from American Type Culture Collection (ATCC) derived from different human cancer types.
(§4) Cells are maintained in RPMI 1640 10% FBS, supplemented with 0.1 g/l penicillin and 0.1 g/l streptomycin sulphate and then incubated at 37° C., 5% CO2 and 98% humidity. For the experiments, cells were harvested from subconfluent cultures using trypsin and resuspended in fresh medium before plating.
(§5) Cells are seeded in 96 well microtiter plates, at 5×10^3 cells per well in aliquots of 195 μl medium, and they are allowed to attach to the plate surface by growing in drug free medium for 18 hours. Afterward, samples are added in aliquots of 5 μl in a ranging from 10 to 10^−8 μg/ml, dissolved in DMSO/EtOH/PBS (0.5:0.5:99). After 48 hours exposure, the antitumor effect are measured by the SRB methodology: cells are fixed by adding 50 μl of cold 50% (wt/vol) trichloroacetic acid (TCA) and incubating for 60 minutes at 4° C. Plates are washed with deionized water and dried. One hundred μl of SRB solution (0.4% wt/vol in 1% acetic acid) is added to each microtiter well and incubated for 10 minutes at room temperature. Unbound SRB is removed by washing with 1% acetic acid. Plates are air dried and bound stain is solubilized with Tris buffer. Optical densities are read on a automated spectrophotometric plate reader at a single wavelength of 490 nm.
(§6) The values for mean+/− SD of data from triplicate wells are calculated. Some parameters for cellular responses can be calculated: GI=growth inhibition, TGI=total growth inhibition (cytostatic effect) and LC=cell killing (cytotoxic effect).

[2] = test system: HT29; assay: cells; settings: Homo sapiens, HT-29, 48 h
Excerpt: as §1, §2, §3, §4, §5, §6

[3] = test system: H-MEC-1; assay: Inhibition of cells growth by colorimetric assay (SRB), H-MEC-1; settings: Homo sapiens, H-MEC-1, 48 hours exposure, SRB; for GI50 / IC (TGI): HMEC-1, 48 h; for CC50: HMEC-1, read-out: LC50 (the source's name)
Excerpt: as §1, §2, §3, §4, §5, §6

[4] = A549, 48 hours exposure, SRB, read-out: LC50 (the source's name)
[5] = HT29, 48 hours exposure, SRB, read-out: LC50 (the source's name)

Structure (SMILES) | GI50 ([1]; A549, 48 hours exposure, SRB) [µM] | CC50 [1, 4] [µM] | IC (TGI) ([1]; A549, 48 hours exposure, SRB) [µM] | GI50 ([2]; HT29, 48 hours exposure, SRB) [µM] | IC (TGI) ([2]; HT29, 48 hours exposure, SRB) [µM] | CC50 [2, 5] [µM] | CC50 ([1]; read-out: LC50, A549, 48 hours exposure, SRB) [µM] | CC50 ([2]; read-out: LC50, HT29, 48 hours exposure, SRB) [µM] | GI50 [3] [µM] | IC (TGI) [3] [µM] | CC50 [3] [µM]
COc1c(C)cc2c(c1OC(=O)OC(C)(C)C)[C@@H]1C3[C@@H]4SC[C@]5(NCCc6c5[nH]c5ccccc65)C(=O)COC[C@@H](c5c6c(c(C)c(OC(C)=O)c54)OCO6)N3[C@@H](C#N)[C@H](C2)N1C (stereo partly drawn) [Compound 21] | 0.758 | 11.6 | 6.99 | 1.18 | 11.6 | 11.6 |  |  |  |  | 
C=COC(=O)Oc1c(OC)c(C)cc2c1[C@@H]1C3[C@@H]4SC[C@]5(NCCc6c5[nH]c5ccccc65)C(=O)COC[C@@H](c5c6c(c(C)c(OC(C)=O)c54)OCO6)N3[C@@H](C#N)[C@H](C2)N1C (stereo partly drawn) [Compound 22] | 0.0393 | 12 | 0.12 | 0.12 | 5.7 | 12 |  |  |  |  | 
C=COC(=O)Oc1c(OC)c(C)cc2c1[C@@H]1C3[C@@H]4SC[C@]5(C(=O)COC[C@@H](c6c7c(c(C)c(OC(C)=O)c64)OCO7)N3[C@@H](C#N)[C@H](C2)N1C)c1[nH]c2ccccc2c1CCN5C(=O)OC=C (stereo partly drawn) [Compound 23] | 0.118 |  | 1.26 | 0.247 | 11.1 |  | 11.1 | 11.1 |  |  | 
C=CCOc1c(OC)c(C)cc2c1[C@@H]1C3[C@@H]4SC[C@]5(NCCc6c5[nH]c5ccccc65)C(=O)COC[C@@H](c5c6c(c(C)c(OC(C)=O)c54)OCO6)N3[C@@H](C#N)[C@H](C2)N1C (stereo partly drawn) [Compound 24] | 12.4 | 12.4 | 12.4 | 12.4 | 12.4 | 12.4 |  |  |  |  | 
C=CCOc1c(OC)c(C)cc2c1[C@@H]1C3[C@@H]4SC[C@]5(C(=O)COC[C@@H](c6c7c(c(C)c(OC(C)=O)c64)OCO7)N3[C@@H](C#N)[C@H](C2)N1C)c1[nH]c2ccccc2c1CCN5CC=C (stereo partly drawn) [Compound 25] | 11.8 | 11.8 | 11.8 | 11.8 | 11.8 | 11.8 |  |  |  |  | 
C=CCOc1c(OC)c(C)cc2c1[C@@H]1C3[C@@H]4SC[C@]5(C(=O)COC[C@@H](c6c7c(c(C)c(OC(C)=O)c64)OCO7)N3[C@@H](O)[C@H](C2)N1C)c1[nH]c2ccccc2c1CCN5CC=C (stereo partly drawn) [Compound 49] | 2.64 | 9.37 | 4.97 | 4.5 | 12.6 | 12.6 |  |  | 1.99 | 4.12 | 8.54
CCCC(=O)Oc1c(C)c2c(c3c1[C@H]1SC[C@]4(NCCc5c4[nH]c4ccccc54)C(=O)COC[C@@H]3N3C1[C@H]1c4c(cc(C)c(OC)c4O)C[C@@H]([C@@H]3C#N)N1C)OCO2 (stereo partly drawn) [Compound 52] | 0.047 | 943 | 0.126 | 0.0793 | 12.6 | 12.6 |  |  | 0.347 | 0.00695 | 0.0126
COc1c(C)cc2c(c1O)[C@@H]1C3[C@@H]4SC[C@]5(NCCc6c5[nH]c5ccccc65)C(=O)COC[C@@H](c5c6c(c(C)c(OC(=O)CCCl)c54)OCO6)N3[C@@H](C#N)[C@H](C2)N1C (stereo partly drawn) [Compound 53] | 0.261 | 12.2 | 0.784 | 0.309 | 1.23 | 12.3 |  |  | 0.132 | 12.3 | 12.3
COc1c(C)cc2c(c1O)[C@@H]1C3[C@@H]4SC[C@]5(NCCc6c5[nH]c5ccccc65)C(=O)COC[C@@H](c5c6c(c(C)c(OC(=O)C(F)(F)F)c54)OCO6)N3[C@@H](C#N)[C@H](C2)N1C (stereo partly drawn) [Compound 56] | 0.0093 | 3.79 | 0.236 | 0.0474 | 12.2 | 12.2 |  |  | 0.00417 | 0.00965 | 0.378
COc1c(C)cc2c(c1OC(=O)OC(C)(C)C)[C@@H]1C3[C@@H]4SC[C@]5(NCCc6c5[nH]c5ccccc65)C(=O)COC[C@@H](c5c6c(c(C)c(OC(=O)OC(C)(C)C)c54)OCO6)N3[C@@H](C#N)[C@H](C2)N1C (stereo partly drawn) [Compound 58] | 0.0891 | 10.8 | 1.34 | 0.23 | 10.8 | 10.8 |  |  | 0.0102 | 10.8 | 10.8
C=COC(=O)Oc1c(C)c2c(c3c1[C@H]1SC[C@]4(NCCc5c4[nH]c4ccccc54)C(=O)COC[C@@H]3N3C1[C@H]1c4c(cc(C)c(OC)c4O)C[C@@H]([C@@H]3C#N)N1C)OCO2 (stereo partly drawn) [Compound 59] | 0.00266 | 4.98 | 2.26 | 0.0038 | 0.0184 | 12.6 |  |  | 0.004 | 0.0126 | 12.6
CCCCCCCC(=O)Oc1c(C)c2c(c3c1[C@H]1SC[C@]4(NCCc5c4[nH]c4ccccc54)C(=O)COC[C@@H]3N3C1[C@H]1c4c(cc(C)c(OC)c4O)C[C@@H]([C@@H]3C#N)N1C)OCO2 (stereo partly drawn) [Compound 61] | 11.8 | 11.8 | 11.8 | 11.8 | 11.8 | 11.8 |  |  | 0.394 | 0.805 | 3.4
CCCC(=O)Oc1c(C)c2c(c3c1[C@H]1SC[C@]4(NCCc5c4[nH]c4ccccc54)C(=O)COC[C@@H]3N3C1[C@H]1c4c(cc(C)c(OC)c4O)C[C@@H]([C@@H]3O)N1C)OCO2 (stereo partly drawn) [Compound 63] | 0.00312 | 3.03 | 0.00953 | 0.00388 | 0.0128 | 12.8 |  |  | 0.00272 | 0.0128 | 12.8
C=CCOC(=O)Oc1c(C)c2c(c3c1[C@H]1SC[C@]4(NCCc5c4[nH]c4ccccc54)C(=O)COC[C@@H]3N3C1[C@H]1c4c(cc(C)c(OC)c4O)C[C@@H]([C@@H]3O)N1C)OCO2 (stereo partly drawn) [Compound 64] | 0.00164 | 0.11 | 0.00683 | 0.00191 | 0.0125 | 12.5 |  |  | 0.00031 | 0.0125 | 12.5
COc1c(C)cc2c(c1O)[C@@H]1C3[C@@H]4SC[C@]5(NCCc6c5[nH]c5ccccc65)C(=O)COC[C@@H](c5c6c(c(C)c(OC(=O)OC(C)(C)C)c54)OCO6)N3[C@@H](O)[C@H](C2)N1C (stereo partly drawn) [Compound 65] | 0.00205 | 0.0479 | 0.0063 | 0.000856 | 0.0205 | 12.3 |  |  | 0.000613 | 0.0435 | 12.3
COc1c(C)cc2c(c1OC(C)(C)C)[C@@H]1C3[C@@H]4SC[C@]5(NCCc6c5[nH]c5ccccc65)C(=O)COC[C@@H](c5c6c(c(C)c(OC(=O)OC(C)(C)C)c54)OCO6)N3[C@@H](O)[C@H](C2)N1C (stereo partly drawn) [Compound 66] | 0.0209 | 0.376 | 0.0575 | 0.028 | 0.113 | 11 |  |  | 0.0207 | 0.0804 | 11
C=COC(=O)Oc1c(C)c2c(c3c1[C@H]1SC[C@]4(NCCc5c4[nH]c4ccccc54)C(=O)COC[C@@H]3N3C1[C@H]1c4c(cc(C)c(OC)c4O)C[C@@H]([C@@H]3O)N1C)OCO2 (stereo partly drawn) [Compound 67] | 0.000455 | 0.128 | 0.00286 | 0.0019 | 0.128 | 12.8 |  |  | 0.000521 | 0.128 | 12.8
